Measurements taken from patent publication US20070208069A1, “PHARMACEUTICAL FORMULATIONS OF AN ANHYDROUS CRYSTAL FORM OF 2-(3-FLUORO-4-HYDROXYPHENYL)-7-VINYL-1,3-BENZOXAZOL-5-OL” (Wyeth, priority 2006, published 2007).

Tests used:
Format in all cases: physicochemical
[1] = Dynamic vapor sorption (hygroscopicity); details: for DVS gain: 0–90% RH
Description: Dynamic Vapor Sorption (Allentown, Pa.) was used to measure the hygroscopicity of the anhydrate and monohydrate of the invention (see FIGS. 6 and 7). The step conditions were three hours each at 0%, 30%, 52.5%, 75% and 90% RH, two full cycles.

[2] = Solid-state stability of crystal forms (XRPD, TGA); details: for Long term crystal form stability (XRPD, TGA): three months (monohydrate also 40° C. without humidity control)
Experimental: […] At room temperature, humidity was maintained at 0% RH. Humidity was not controlled for the higher temperatures.
The samples were analyzed by XRPD and TGA.
(§1) Non-micronized samples of monohydrate and anhydrate were stored at 40° C./75% RH for three months. The monohydrate was also stored at 40° C. without humidity control. During the three months, the samples were checked after two weeks, one month, two months, and three months.

[3] = Chemical stability on storage (HPLC); details: non-micronized, 40° C./75% RH, three months
Experimental: as §1

[4] = Water solubility of the two crystal forms

Row | Hygroscopicity (DVS), in words [1] | DVS gain [1] | Crystal form stability (XRPD) ([2]; micronized, 25° C./60% RH, three months) | Crystal form stability (XRPD) ([2]; non-micronized, 40° C./75% RH) | Long term crystal form stability (XRPD, TGA) ([2]; non-micronized, 40° C./75% RH) | Long term chemical stability (HPLC) [3] | Medium term stability (XRPD, TGA) ([2]; 56° C., humidity not controlled, one week) | Medium term stability (XRPD, TGA) ([2]; 70° C., 1 day) | Medium term stability (XRPD, TGA) ([2]; 70° C., 4 days) | Medium term stability (XRPD, TGA) ([2]; 70° C., 7 days) | Short term stability (XRPD) ([2]; 70° C., one hour) | Short term stability (XRPD) ([2]; 90° C., one half hour) | Short term stability (XRPD) ([2]; 90° C., one hour) | Medium term stability (XRPD, TGA) ([2]; room temperature, 0% RH, one week) | Compound | Crystal form stability (XRPD) ([2]; micronized, 40° C./75% RH, one month) | Water solubility compared between forms, in words [4]
1 | largely non-hygroscopic | 0.2% gain (0–90% RH) | did not transform to the monohydrate | did not show any obvious transformation | did not transform | chemically stable |  |  |  |  |  |  |  |  | C=Cc1cc(O)cc2nc(-c3ccc(O)c(F)c3)oc12 [Anhydrate, 2-(3-fluoro-4-hydroxyphenyl)-7-vinyl-1,3-benzoxazol-5-ol] | did partially transform to the monohydrate | 
2 | largely non-hygroscopic | 0.1% gain (0–90% RH) |  |  | did not transform | chemically stable | no obvious dehydration | no obvious hydration | partially dehydrated | mostly dehydrated | stable | partially dehydrated | completely dehydrated | no obvious dehydration | C=Cc1cc(O)cc2nc(-c3ccc(O)c(F)c3)oc12 [Monohydrate, 2-(3-fluoro-4-hydroxyphenyl)-7-vinyl-1,3-benzoxazol-5-ol] |  | significantly lower solubility than the anhydrate
